Laboratory results published in ChEMBL document CHEMBL3046453, “Abdominal color of the Asian citrus psyllid, Diaphorina citri, is associated with susceptibility to various insecticides” (2013).
In brackets after ≈: the same amount, converted by molar mass.

Experiments:
Format in all cases: functional
Settings in all cases: for LC50: Diaphorina citri, 48 h
Diaphorina citri [1] = experiment: Insecticidal activity against blue/green Diaphorina citri in citrus leaf assessed as mortality after 48 hr by leaf-dip petridish bioassay method
Diaphorina citri [2] = experiment: Insecticidal activity against gray/brown Diaphorina citri in citrus leaf assessed as mortality after 48 hr by leaf-dip petridish bioassay method
Diaphorina citri [3] = experiment: Insecticidal activity against orange/yellow Diaphorina citri in citrus leaf assessed as mortality after 48 hr by leaf-dip petridish bioassay method

CC1(C)C(C(=O)OC(C#N)c2cccc(Oc3ccccc3)c2)C1(C)C (centres undefined) [FENPROPATHRIN]
LC95 (Diaphorina citri [1]): 29.21 µg/mL (≈ 83.6 µM) | LC50 (Diaphorina citri [1]): 0.85 µg/mL (≈ 2.43 µM)

O=[N+]([O-])/N=C1\NCCN1Cc1ccc(Cl)nc1 [IMIDACLOPRID]
LC95 (Diaphorina citri [2]): 1.59 µg/mL (≈ 6.22 µM) | LC50 (Diaphorina citri [2]): 0.41 µg/mL (≈ 1.6 µM) | LC95 (Diaphorina citri [1]): 1.84 µg/mL (≈ 7.2 µM) | LC50 (Diaphorina citri [1]): 0.4 µg/mL (≈ 1.56 µM) | LC95 (Diaphorina citri [3]): 1.09 µg/mL (≈ 4.26 µM) | LC50 (Diaphorina citri [3]): 0.18 µg/mL (≈ 0.704 µM)

CCOP(=S)(OCC)Oc1nc(Cl)c(Cl)cc1Cl [CHLORPYRIFOS]
LC95 (Diaphorina citri [2]): 11.62 µg/mL (≈ 33.1 µM) | LC50 (Diaphorina citri [2]): 3.62 µg/mL (≈ 10.3 µM) | LC95 (Diaphorina citri [1]): 12.12 µg/mL (≈ 34.6 µM) | LC50 (Diaphorina citri [1]): 3.93 µg/mL (≈ 11.2 µM) | LC95 (Diaphorina citri [3]): 2.67 µg/mL (≈ 7.62 µM) | LC50 (Diaphorina citri [3]): 0.92 µg/mL (≈ 2.62 µM)
